The record followed here is the supplement of paper PMC10307832.

Assay in all cases: relative viability (nuclei count vs DMSO), 5 days (fraction); higher = more cells survive
Compound in the test “Carboplatin + AZD7762”: C1CC(C1)(C(=O)O)C(=O)O.[NH2-].[NH2-].[Pt+2] [Carboplatin] + NC(=O)Nc1cc(-c2cccc(F)c2)sc1C(=O)N[C@H]1CCCNC1 [AZD7762] (partner 0.2 µM)
The gist of the method: (§1)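 Lung cancer cell lines in 1536-well plates were dosed by pin tool the day after seeding, either with one drug alone or with a fixed anchor-drug dose plus five library-drug doses (not always all listed) in √10 steps. After 5 days, cells were fixed and their nuclei stained in one step (final 0.05% Triton X-100, 1% formaldehyde, 1 ug/ml Hoechst), then counted on 4× images. Relative viability is the nuclei count in treated wells divided by that in vehicle wells. Values are medians of duplicate plates.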

Compound in the test “Carboplatin + Vorinostat”: C1CC(C1)(C(=O)O)C(=O)O.[NH2-].[NH2-].[Pt+2] [Carboplatin] + O=C(CCCCCCC(=O)Nc1ccccc1)NO [Vorinostat] (partner 1 µM)
In short, it runs like this:
as §1

Compound in the test “GSK126 + Bortezomib”: CC[C@H](C)N1C=C(C2=C(C=C(C=C21)C3=CN=C(C=C3)N4CCNCC4)C(=O)NCC5=C(C=C(NC5=O)C)C)C [GSK126] + CC(C)C[C@H](NC(=O)[C@H](Cc1ccccc1)NC(=O)c1cnccn1)B(O)O [Bortezomib] (partner 0.002 µM)
In short, it runs like this:
as §1

Compound in the test “GSK126 + Alpelisib”: CC[C@H](C)N1C=C(C2=C(C=C(C=C21)C3=CN=C(C=C3)N4CCNCC4)C(=O)NCC5=C(C=C(NC5=O)C)C)C [GSK126] + Cc1nc(NC(=O)N2CCC[C@H]2C(N)=O)sc1-c1ccnc(C(C)(C)C(F)(F)F)c1 [Alpelisib] (partner 2 µM)
The gist of the method:
as §1

With NCI-H647, the relative viability in the test with Carboplatin + AZD7762 (first compound 0.08 µM) came to 0.604; with Carboplatin + AZD7762 (first compound 0.253 µM), 0.474; with Carboplatin + AZD7762 (first compound 0.8 µM), 0.444; with Carboplatin + AZD7762 (first compound 2.53 µM), 0.476; with Carboplatin + AZD7762 (first compound 8 µM) it was 0.303; with Carboplatin + Vorinostat (first compound 0.08 µM), 0.39. The relative viability in the test with Carboplatin + Vorinostat (first compound 0.253 µM) worked out at 0.493; with Carboplatin + Vorinostat (first compound 0.8 µM), 0.609; with Carboplatin + Vorinostat (first compound 2.53 µM), 0.646; with Carboplatin + Vorinostat (first compound 8 µM) it was 0.175; in the test with GSK126 + Bortezomib (first compound 0.08 µM), 1.06; with GSK126 + Bortezomib (first compound 0.253 µM) it was 0.808. Further, the relative viability with GSK126 + Bortezomib (first compound 0.8 µM) was 1.03; with GSK126 + Bortezomib (first compound 2.53 µM), 1.07; with GSK126 + Bortezomib (first compound 8 µM) it was 0.882; in the test with GSK126 + Alpelisib (first compound 0.08 µM) it was 1.33; with GSK126 + Alpelisib (first compound 0.253 µM), 1.34; with GSK126 + Alpelisib (first compound 0.8 µM), 1.1. For the same cell line, the relative viability with GSK126 + Alpelisib (first compound 2.53 µM) turned out to be 1.05; with GSK126 + Alpelisib (first compound 8 µM) it was 0.919.
For the cell line NCI-H650, the relative viability in the test with Carboplatin + AZD7762 (first compound 0.08 µM) turned out to be 0.985; in the test with Carboplatin + AZD7762 (first compound 0.253 µM) it was 0.948; with Carboplatin + AZD7762 (first compound 0.8 µM), 0.778; in the test with Carboplatin + AZD7762 (first compound 2.53 µM) it was 0.863; with Carboplatin + AZD7762 (first compound 8 µM), 0.721; with Carboplatin + Vorinostat (first compound 0.08 µM), 0.504. Besides, the relative viability with Carboplatin + Vorinostat (first compound 0.253 µM) was determined as 0.457; in the test with Carboplatin + Vorinostat (first compound 0.8 µM) it was 0.503; in the test with Carboplatin + Vorinostat (first compound 2.53 µM), 0.366; with Carboplatin + Vorinostat (first compound 8 µM) it was 0.275; in the test with GSK126 + Bortezomib (first compound 0.08 µM) it was 0.812; with GSK126 + Bortezomib (first compound 0.253 µM), 0.814. The relative viability in the test with GSK126 + Bortezomib (first compound 0.8 µM) came to 0.762; in the test with GSK126 + Bortezomib (first compound 2.53 µM), 0.804; in the test with GSK126 + Bortezomib (first compound 8 µM), 0.727; with GSK126 + Alpelisib (first compound 0.08 µM) it was 1.24; with GSK126 + Alpelisib (first compound 0.253 µM), 1.11; in the test with GSK126 + Alpelisib (first compound 0.8 µM), 1.17. The relative viability with GSK126 + Alpelisib (first compound 2.53 µM) was determined as 1.23; in the test with GSK126 + Alpelisib (first compound 8 µM), 0.993.
Turning to NCI-H727, the relative viability was 0.579 in the test with Carboplatin + AZD7762 (first compound 0.08 µM); 0.461 with Carboplatin + AZD7762 (first compound 0.253 µM); 0.628 in the test with Carboplatin + AZD7762 (first compound 0.8 µM); 0.685 in the test with Carboplatin + AZD7762 (first compound 2.53 µM); 0.639 with Carboplatin + AZD7762 (first compound 8 µM); 1.38 with Carboplatin + Vorinostat (first compound 0.08 µM). Besides, the relative viability with Carboplatin + Vorinostat (first compound 0.253 µM) was found to be 1.15; with Carboplatin + Vorinostat (first compound 0.8 µM), 1.17; with Carboplatin + Vorinostat (first compound 2.53 µM) it was 1.03; with Carboplatin + Vorinostat (first compound 8 µM), 0.831; in the test with GSK126 + Bortezomib (first compound 0.08 µM), 1.02; in the test with GSK126 + Bortezomib (first compound 0.253 µM), 0.78. Besides, the relative viability was 0.899 in the test with GSK126 + Bortezomib (first compound 0.8 µM); 0.854 with GSK126 + Bortezomib (first compound 2.53 µM); 0.88 with GSK126 + Bortezomib (first compound 8 µM); 0.649 with GSK126 + Alpelisib (first compound 0.08 µM); 0.493 with GSK126 + Alpelisib (first compound 0.253 µM); 0.643 with GSK126 + Alpelisib (first compound 0.8 µM). For the same cell line, the relative viability in the test with GSK126 + Alpelisib (first compound 2.53 µM) stood at 0.636; with GSK126 + Alpelisib (first compound 8 µM) it was 0.704.
For NCI-H838, the relative viability with Carboplatin + AZD7762 (first compound 0.08 µM) came out at 1.09; in the test with Carboplatin + AZD7762 (first compound 0.253 µM), 0.957; in the test with Carboplatin + AZD7762 (first compound 0.8 µM), 0.837; in the test with Carboplatin + AZD7762 (first compound 2.53 µM), 0.869; with Carboplatin + AZD7762 (first compound 8 µM) it was 0.758; in the test with Carboplatin + Vorinostat (first compound 0.08 µM), 0.733. Moreover, the relative viability came out at 0.705 with Carboplatin + Vorinostat (first compound 0.253 µM); 0.728 with Carboplatin + Vorinostat (first compound 0.8 µM); 0.626 with Carboplatin + Vorinostat (first compound 2.53 µM); 0.608 in the test with Carboplatin + Vorinostat (first compound 8 µM); 0.935 with GSK126 + Bortezomib (first compound 0.08 µM); 0.828 with GSK126 + Bortezomib (first compound 0.253 µM). Further, the relative viability in the test with GSK126 + Bortezomib (first compound 0.8 µM) amounted to 0.662; with GSK126 + Bortezomib (first compound 2.53 µM) it was 0.613; with GSK126 + Bortezomib (first compound 8 µM), 0.767; with GSK126 + Alpelisib (first compound 0.08 µM), 1.12; with GSK126 + Alpelisib (first compound 0.253 µM), 0.982; in the test with GSK126 + Alpelisib (first compound 0.8 µM), 0.866. The values for the relative viability with GSK126 + Alpelisib (first compound 2.53 µM) and with GSK126 + Alpelisib (first compound 8 µM) were 0.845 and 0.809, respectively.
Turning to NCI-H1355, the relative viability with Carboplatin + AZD7762 (first compound 0.08 µM) was 0.98; with Carboplatin + AZD7762 (first compound 0.253 µM) it was 0.877; with Carboplatin + AZD7762 (first compound 0.8 µM) it was 0.626; with Carboplatin + AZD7762 (first compound 2.53 µM), 0.791; with Carboplatin + AZD7762 (first compound 8 µM), 0.729; with Carboplatin + Vorinostat (first compound 0.08 µM), 0.745. Besides, the relative viability with Carboplatin + Vorinostat (first compound 0.253 µM) came to 0.673; with Carboplatin + Vorinostat (first compound 0.8 µM), 0.648; with Carboplatin + Vorinostat (first compound 2.53 µM), 0.655; with Carboplatin + Vorinostat (first compound 8 µM), 0.559; with GSK126 + Bortezomib (first compound 0.08 µM), 1.27; with GSK126 + Bortezomib (first compound 0.253 µM), 1.33. Further, the relative viability in the test with GSK126 + Bortezomib (first compound 0.8 µM) worked out at 1.11; with GSK126 + Bortezomib (first compound 2.53 µM), 1.17; with GSK126 + Bortezomib (first compound 8 µM), 1.19; with GSK126 + Alpelisib (first compound 0.08 µM), 0.935; with GSK126 + Alpelisib (first compound 0.253 µM) it was 0.836; with GSK126 + Alpelisib (first compound 0.8 µM), 0.762. Further, the relative viability in the test with GSK126 + Alpelisib (first compound 2.53 µM) was 0.876; in the test with GSK126 + Alpelisib (first compound 8 µM), 0.901.
Take NCI-H1437: the relative viability turned out to be 1.22 with Carboplatin + AZD7762 (first compound 0.08 µM); 1.09 with Carboplatin + AZD7762 (first compound 0.253 µM); 0.927 with Carboplatin + AZD7762 (first compound 0.8 µM); 0.955 in the test with Carboplatin + AZD7762 (first compound 2.53 µM); 1.03 with Carboplatin + AZD7762 (first compound 8 µM); 0.803 with Carboplatin + Vorinostat (first compound 0.08 µM). The relative viability with Carboplatin + Vorinostat (first compound 0.253 µM) came out at 0.869; with Carboplatin + Vorinostat (first compound 0.8 µM), 0.728; with Carboplatin + Vorinostat (first compound 2.53 µM) it was 0.808; in the test with Carboplatin + Vorinostat (first compound 8 µM), 0.598; with GSK126 + Bortezomib (first compound 0.08 µM), 0.528; in the test with GSK126 + Bortezomib (first compound 0.253 µM), 0.504. Moreover, the relative viability with GSK126 + Bortezomib (first compound 0.8 µM) worked out at 0.442; with GSK126 + Bortezomib (first compound 2.53 µM) it was 0.45; with GSK126 + Bortezomib (first compound 8 µM), 0.518; with GSK126 + Alpelisib (first compound 0.08 µM) it was 1.07; with GSK126 + Alpelisib (first compound 0.253 µM), 0.934; with GSK126 + Alpelisib (first compound 0.8 µM), 0.869. Moreover, the relative viability with GSK126 + Alpelisib (first compound 2.53 µM) was determined as 0.824; with GSK126 + Alpelisib (first compound 8 µM), 0.993.
NCI-H1651: the relative viability turned out to be 0.539 with Carboplatin + AZD7762 (first compound 0.08 µM); 0.537 in the test with Carboplatin + AZD7762 (first compound 0.253 µM); 0.447 with Carboplatin + AZD7762 (first compound 0.8 µM); 0.456 with Carboplatin + AZD7762 (first compound 2.53 µM); 0.436 with Carboplatin + AZD7762 (first compound 8 µM); 0.617 with Carboplatin + Vorinostat (first compound 0.08 µM). Further, the relative viability with Carboplatin + Vorinostat (first compound 0.253 µM) is 0.556; with Carboplatin + Vorinostat (first compound 0.8 µM), 0.588; in the test with Carboplatin + Vorinostat (first compound 2.53 µM), 0.524; with Carboplatin + Vorinostat (first compound 8 µM) it was 0.483; in the test with GSK126 + Bortezomib (first compound 0.08 µM), 1.03; in the test with GSK126 + Bortezomib (first compound 0.253 µM), 0.949. The relative viability with GSK126 + Bortezomib (first compound 0.8 µM) is 0.981; in the test with GSK126 + Bortezomib (first compound 2.53 µM), 1.01; with GSK126 + Bortezomib (first compound 8 µM), 0.996; in the test with GSK126 + Alpelisib (first compound 0.08 µM), 1.13; with GSK126 + Alpelisib (first compound 0.253 µM), 0.946; with GSK126 + Alpelisib (first compound 0.8 µM) it was 0.933. In addition, the relative viability with GSK126 + Alpelisib (first compound 2.53 µM) was found to be 0.938; with GSK126 + Alpelisib (first compound 8 µM) it was 0.936.
